Molecular target: solubilized Aβ40 (Homo sapiens, UniProt P05067)
Assay: MS (mass spectrometry) binding assay for Aβ40
Experimental: The test compounds were synthesized and screened by mass spectrometry (“MS”) assays. The MS assay gives data on the ability of compounds to bind to proteins, in this example, to β-amyloid.
In the MS assay for Aβ40, the sample was prepared as an aqueous solution (adding 20% ethanol if necessary to solubilize in water), 200 μM of a test compound and 20 μM of solubilized Aβ40, or 400 μM of a test compound and 40 μM of solubilized Aβ40. The pH value of the sample was adjusted to 7.4 (±0.2) by addition of 0.1% aqueous sodium hydroxide. The solution was then analyzed by electrospray ionization mass spectrometry using a Waters ZQ 4000 mass spectrometer. The sample was introduced by direct infusion at a flow-rate of 25 μL/min within 2 hr. after sample preparation. The source temperature was kept at 70° C. and the cone voltage was 20 V for all the analysis. Data were processed using Masslynx 3.5 software. The MS assay gives data on the ability of compounds to bind to soluble Aβ.

Chain of solubilized Aβ40 (P05067 672-711 limits assumed): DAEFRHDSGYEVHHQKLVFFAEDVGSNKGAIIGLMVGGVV

binding to soluble Aβ40 (200 μM of test compound): 20-44% | binding to soluble Aβ40 (400 μM of test compound): 45-59%
Structure (SMILES): O=S(=O)(O)CCCNCC(F)(F)F [3-[(2,2,2-trifluoroethyl)amino]-1-propanesulfonic acid]
